# Test results published in patent US8377883B2, “Peptide for anti-angiogenesis and use thereof” (Beijing Institute for Cancer Research, priority 2006, dated 2013).
# What was measured:
# [1] = test system: chick chorioallantoic membrane vessel; assay: Proliferation of chick chorioallantoic membrane vessel; settings: 10 μl of 1 μg/μL on glass fiber filter membrane, 24 hours
# Protocol: In this example an experiment of proliferation of chick chorioallantoic membrane vessel was carried out to test suppressing effects of FpAT on angiogenesis.
# The test was performed according to the method described in the reference “Fu Shengfa, Lu yinglin, Zhang Chaoshan et al., A chick chorioallantoic membrane technique to test function of vascular growth factors, Bulletin of the Academy of Military Medical Sciences 1993, 17:294-97”. Fresh fertilized hen eggs were immersed into 0.1% benzalkonium bromide solution at 38° C. for 2 minutes, and then incubated in an incubator at 37.5° C. in a humidity of 60-70% for 3 days. Then the eggs with shell removed were transferred to plate and cultured. The samples were separated into groups and administered when the allantoic membrane grew to about 2 cm^2, 5 chicken embryos per group. 10 μl of FpAT (1 μg/μL), PBS (negative control) was dropped on a glass fiber filter membrane of Φ4 mm, which was placed at distal end of chorioallantoic membrane, and cultured for 24 hours. The results were observed and recorded by taking photos. The experiment was repeated twice.
# tumor microvessel = assay: Tumor microvessel density (MVD) by factor VIII immunohistochemistry; format: in vivo, mice
# Protocol: In order to confirm that the suppression of FpAT on tumor growth in mice in vivo is achieved by suppressing angiogenesis, an analysis of microvessel density in tumor was performed in this example by using tumor mass in Examples 4 and 5.
# The tumor masses were fixed with formaldehyde, and then cut into serial section of 3 μm. The paraffin sections were dewaxed to water, and incubated in 3% H2O2 at room temperature for 10 minutes, to which rabbit anti-human factor VIII polyclonal antibody (DAKO company) was added dropwise, and after left at 4° C. overnight; 1:200 sheep anti-rabbit IgG labeled with biotin (Beijing ZhongShan bioengineering Company) was added dropwise, and incubated at 37° C. for 30 minutes. […] Then a visual field with most interstitial blood vessels of cancer nest was chosen, and under a ×400 magnitude field, 3 visual fields were counted by 3 observers individually according to double blind method; wherein individual cells and cell clusters stained brown were observed and taken as one blood vessel, whereas blood vessel cavities and erythrocytes therein were not counted, and blood vessel or vessel cavities in muscular layer larger than 50 μm were excluded. The average value of numbers counted by 3 individuals was taken as MVD (microvessel density) result of this case for a statistics analysis, see Table 4.
# [2] = test system: human lung cancer PG cells; assay: Tumor suppression in human lung cancer PG tumor-bearing nude mice model; format: in vivo, Balb/c nude mice; settings: 50 μg/100 μl PBS/injection, angulus oculi medialis vein once every other day, 10 times; vs vehicle, P<0.05
# Protocol: In order to confirm the biological effects of FpAT on the growth of human deriving tumors in nude mice in vivo, a tumor suppression experiment was carried out in this example using human gastric carcinoma BGC-823 cells tumor-bearing nude mice model, human lung cancer PG cells tumor-bearing nude mice model and human colon cancer HT-29 cells tumor-bearing nude mice model.
# Twenty 5-week old Balb/c nude mice purchased from Animal Center Of Chinese Academy Of Medical Sciences were inoculated subcutaneously in forelimb with human gastric carcinoma BGC-823 cells (National Institute for the Control of Pharmaceutical and Biological Products) (5×10^6/100 μl/mouse), human lung cancer PG cells (National Institute for the Control of Pharmaceutical and Biological Products) (5×10^6/100 μl/mouse) or human colon cancer HT-29 cells (ATCC® Number: HTB-38™) (5×10^6/100 μl/mouse). On the next day after inoculation, each kind of inoculated cells were divided into 2 groups randomly with 5 mice per group. […] Observation was continued for another 20 days after administration was stopped, and during this period the long and short diameters of the tumors were measured with a vernier caliper once every three days, and the volumes of the tumor mass were calculated according to formula ½×long diameter×short diameter^2. […]
# [3] = test system: D2F2 cells (Balb/c mouse-derived breast carcinoma cell); assay: MTT proliferation of D2F2 cells; format: cell-based; settings: 25 μg/ml PBS, ninety six hours
# Protocol: To investigate direct effects of FpAT on tumor cells in vitro, the influence of FpAT on the proliferation of D2F2 cell (Balb/c mouse-derived breast carcinoma cell) was examined using MTT in this example.
# D2F2 cells (Mahoney K H, Miller B E, Heppner G H. FACS quantitation of leucine aminopeptidase and acid phosphatase on tumor-associated macrophages from metastatic and nonmetastatic mouse mammary tumors. J Leukoc Biol. 1985 November; 38(5): 573-85.) were cultured conventionally. The cultured D2F2 cells were digested with 0.04% trypsin-EDTA, and inoculated into 96-well plate at 3×10^3 cells/well; after 24 hours of culture, PBS and FpAT (25 μg/ml PBS) were added separately, with 4 parallel wells per group. Ninety six hours later, 20 μl MTT solution of mass concentration of 5 mg/ml was added to each well. After the culture was performed continuously for 4 hours, the original culture medium was discarded and 200 μl DMSO was added to each well, and then it was shaken for 15 minutes. After mixed well, OD value (measured at a wavelength of 570 nm) of each well was measured in a microplate reader, and the cell suppression rates were calculated according to the following formula: cell suppression rate=(mean OD value of blank control group−mean OD value of treated group)/mean OD value of blank control group×100%.
# [4] = test system: endothelial cells of mouse aorta; assay: Growth of primary endothelial cells from mouse aorta segments on Matrigel; format: cell-based, Balb/c mice; settings: 10, 25, 100 μg/ml PBS; 48 hours, 72 hours
# Protocol: The Balb/c mice were sacrificed by dislocating the neck and aorta were detached and washed off the blood cells therein with PBS. The cleaned aorta was cut into aorta segments in length of 1 mm, which were planted vertically in 24-well cell culture plate coated with Matrigel gel (BD company); and 10% FCS/RPMI1640 was added, and the plates were placed and cultured in CO2 incubator (37° C., 5% CO2). The vehicle (PBS) and FpAT (10 μg/ml PBS, 25 μg/ml PBS, 100 μg/ml PBS) were added separately, with 3 parallel wells per group, and the cultivation was performed for 48 hours, 72 hours. Then the growth of mouse aorta endothelial cell was observed under microscope.
substance,measurement,setting,value
"H2N-Asp-Ser-Gly-Glu-Gly-Asp-Phe-Leu-Ala-Glu-Gly-Gly-Gly-Val-Arg-COOH (H-DSGEGDFLAEGGGVR-OH; listed as Homo sapiens) [FpAT, fibrinopeptide A truncated, carboxyl terminal 15 amino acids of fibrinopeptide A]",blood vessel distribution and original blood vessel,[1],inducing disorder of blood vessel distribution and atrophy of original blood vessel
same,blood vessel formation,[1],suppressing remarkably blood vessel formation
same,MVD,"tumor microvessel; tumor mass of Examples 4 and 5, 20 visual fields observed totally, PBS group 6.4",2.6 Number of micro vessel/visual field
same,growth of microvessel in tumor tissue,"tumor microvessel; vs PBS control group, P<0.05",suppressed significantly the growth of microvessel
same,growth of human lung cancer PG cells in nude mice (tumor mass),[2],could suppress the growths
same,suppression of D2F2 cell proliferation,[3],can not suppress D2F2 cells in vitro
same,growth of vascular endothelial cell of mouse aorta,[4],can suppress specifically the growth
same,"proliferation, migration and ability to form tubular structure of vascular endothelial cell of mouse aorta",[4],suppress notably
